Experiment [1] relates to ADP (1 × 10^-5 M)-induced platelet aggregation. Kind of experiment: Inhibition of ADP-induced platelet aggregation. It is filed as cell-based. Here is the method:
The effect of these peptides on ADP-induced platelet aggregation was determined and compared with peptide RGDS which is known to inhibit platelet aggregation.

The next experiment relates to clotted blood. The experiment in a line: Binding of radiolabelled peptides to clotted blood. On the procedure: (§1) The results (Table 2) indicate that all four peptides can bind platelets in ADP stimulated blood and that higher incorporation can be achieved In clotted blood.
(§2) Iodogen tubes were prepared by dissolving Iodogen (1, 3, 4, 6-Tetrachloro-3α, 6α-diphenylglycouril) in chloroform at a concentration of 1 mg.ml-^1. Aliquots of 50 μl (50 μg Iodogen) were dispensed into polypropylene cryo-tubes and the chloroform evaporated to dryness. These tubes were then stored dessicated at -20° C. until required.
(§3) Prior to radiolabelling the peptides were dissolved in phosphate buffered saline (PBS) at a concentration of 50 mg.ml-^1. RGDSYC and […] were first dissolved in a small volume of dimethyl sulphoxide (DMSO) such that the final concentration of DMSO in PBS was 1% v/v.
(§4) Iodogen tubes were equilibrated to room temperature before the addition of 200 μl peptide solution and 1-10 μl of ^123 I (in aqueous solution). The reaction mixture was then left for 15min at room temperature with occasional shaking. Following the incubation period the reaction mixture was removed and passed through a Sephadex G10 column which had been equilibrated with PBS. The column, which separates radiolabelled peptide from free iodine was eluted with PBS and 2 ml fractions collected. Radioactivity in the fractions was measured and the eluted peptides, represented by the first radioactive peak from the column, collected and stored at 4° C. until required.

In experiment [2] the test system is activated platelets in whole blood (ADP stimulated blood). Kind of experiment: Binding of radiolabelled peptides to ADP stimulated blood. Here is the method:
as §1, §2, §3, §4

With RGDSCRGDSY, the figures for the “percentage inhibition of ADP-induced platelet aggregation” value in experiment [1] (peptide 0.1 mM), in experiment [1] (peptide 0.2 mM) and in experiment [1] (peptide 0.4 mM) were 17%, 57% and 79%, respectively. In addition, the bound peptide in the experiment on clotted blood (1 ng radiolabelled peptide) was found to be 0.28 ng; in the experiment with clotted blood (10 ng radiolabelled peptide), 2.64 ng; with clotted blood (100 ng radiolabelled peptide), 29.33 ng; in experiment [2] (1 ng radiolabelled peptide), 0.01 ng; in experiment [2] (10 ng radiolabelled peptide), 0.85 ng; in experiment [2] (100 ng radiolabelled peptide), 9.07 ng.

Source of the values: patent publication US5843402A, “Synthetic peptides for use in thrombus detection” (Antisoma Research Limited, priority 1989, dated 1998).
